Measured values as given in patent US11053250B2, “Pyrrolo[1,2-b]pyridazine derivatives” (Gilead Sciences, Inc., priority 2018, dated 2021).
pEC50, pIC50: −log10 of the molar value.

Experiments:
TNFα = assay: IRAK4 Monocyte TNFα Cell Based Assay; settings: cryopreserved human monocytes, LPS 50 pg/ml stimulation, TNFα by TR-FRET
Description: The cell suspension was then plated at a density of 5,000 cells/well onto black 384 well Greiner clear bottom plates. Plates were pre-spotted with test compounds and serially diluted in DMSO where 40 nL/well were delivered using the Echo 550 acoustic liquid dispenser (Labcyte®) for a final DMSO concentration of 0.1%. Plated cells were treated with compound for 1 hour at 37° C. Cells were then stimulated with 50 pg/ml of LPS (Sigma) excluding outside columns of plate used for unstimulated cell control wells. Cells were incubated for an additional 4 hours at 37° C. Cells were then spun out of the media and 5 μl of sample were taken and analyzed for total TNFα content using the TR-FRET Human TNFα detection system (CisBio). This system utilizes two labeled antibodies (cryptate and XL665) that bind to two different epitopes of the TNFα molecule and produce FRET signal proportional to the concentration of TNFα in the sample. Detection antibodies are mixed 50:50 and 5 μL were dispensed into each well. Plates were covered with clear seals and incubated at room temp overnight. The following morning plates were read using an Envision 2103 Multilabeled reader (PerkinElmer) with excitation/emission/FRET emission at 340 nm/615 nm/665 nm, respectively. Fluorescence intensities at 615 nm and 665 nm emission wavelengths were expressed as a ratio (665 nm/615 nm). Percent of control was calculated as follows: % Control=100×(RatioSample−Ratio0% stimulation)/(Ratio100% Stimulation−Ratio0% stimulation) where unstimulated cells (0% stimulation) were the negative control and stimulated cells (100% stimulation) were used as the positive control.

IRAK4 enzyme = IRAK4 enzyme (Homo sapiens (Human), UniProt Q9NWZ3); assay: IRAK4 Biochemical Assay (TR-FRET/HTRF); settings: 0.75 nM IRAK4, 500 μM ATP, STK1 peptide
Description: IRAK4 enzyme (Carna Biosciences, Chuo-ku, Kobe, Japan) activity was measured by detecting phosphorylated peptide substrate formation using an antibody against the phosphorylated peptide substrate. This is a time-resolved fluorescence resonance energy transfer (TR-FRET) immunoassay, based on the STK1 KinEASE Assay (Cisbio, Bedford, Mass.). The assay was designed as a simple two-step, endpoint assay (a 5 μl enzyme reaction followed by 5 μl stop and detect Solution) performed in ProxiPlate-384 Plus plates (Perkin Elmer, Waltham, Mass.). Staurosporine, a non-selective kinase inhibitor was used as a positive control. Compounds diluted in DMSO were spotted into 384 well plates using a Labcyte® Echo 550 Liquid Handling System prior to addition of IRAK4 enzyme and peptide substrate. Reaction solutions were delivered using a Multi-Flo (Bio-Tek Instruments). The enzyme and peptide solution was incubated with compound for 15 minutes at room temp before the reaction was initiated by the addition of ATP. The standard 5 μl reaction mixture contained 500 μM ATP, 2 μM peptide (STK1 Peptide), 0.75 nM of IRAK4 in reaction buffer (50 mM HEPES, pH 7.0, 0.02% NaN3, 0.01% BSA, 0.1 mM Orthovanadate, 5 mM MgCl2, 0.025% NP-40, 1 mM DTT). After 120 min of incubation at room temperature, 5 μl of Stop and Detect Solution (1:100 Cryptate labeled anti-phosphorylated peptide antibody solution and 125 nM Tracer in a 50 mM HEPES pH 7.0 detection buffer containing sufficient EDTA) was added. The plate was then further incubated for 60 minutes at room temperature and read on Envision 2103 Multilabeled reader (PerkinElmer) with excitation/emission/FRET emission at 340 nm/615 nm/665 nm, respectively. Fluorescence intensities at 615 nm and 665 nm emission wavelengths were expressed as a ratio (665 nm/615 nm). Percentage of inhibition was calculated as below: % Inhibition=100×(RatioSample−Ratio0% Inhibition)/(Ratio100% Inhibition−Ratio0% Inhibition)
The 0% inhibition value comes from control wells lacking inhibitor. The 100% inhibition value comes from control wells containing a saturating amount of known inhibitor staurosporine.

Sequence of IRAK4 enzyme (Q9NWZ3 whole entry): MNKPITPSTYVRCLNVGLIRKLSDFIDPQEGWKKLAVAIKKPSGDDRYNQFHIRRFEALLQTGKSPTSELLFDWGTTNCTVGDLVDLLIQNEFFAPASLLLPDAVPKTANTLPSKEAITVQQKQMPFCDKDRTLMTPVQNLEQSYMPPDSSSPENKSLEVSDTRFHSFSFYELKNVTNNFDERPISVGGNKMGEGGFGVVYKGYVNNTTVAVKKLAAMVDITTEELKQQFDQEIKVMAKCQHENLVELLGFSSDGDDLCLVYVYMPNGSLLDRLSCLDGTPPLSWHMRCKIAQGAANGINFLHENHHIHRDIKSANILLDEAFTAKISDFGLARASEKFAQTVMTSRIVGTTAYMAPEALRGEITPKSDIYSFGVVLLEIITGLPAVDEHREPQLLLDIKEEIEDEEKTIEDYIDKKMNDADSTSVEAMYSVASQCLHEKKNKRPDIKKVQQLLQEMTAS

Compound | pEC50 (TNFα) | pIC50 (IRAK4 enzyme) | pEC50 (TNFα; Monocyte)
CC(C)(O)[C@H](F)Cn1cc(-c2cnc(-c3ccc4cc(C#N)cnn34)cc2N[C@H]2CC[C@H](c3nnc(C(F)F)o3)CC2)nn1 [Compound 3, 7-(4-(((1r,4R)-4-(5-(difluoromethyl)-1,3,4-oxadiazol-2-yl)cyclohexyl)amino)-5-(1-((R)-2-fluoro-3-hydroxy-3-methylbutyl)-1H-1,2,3-triazol-4-yl)pyridin-2-yl)pyrrolo[1,2-b]pyridazine-3-carbonitrile] | 7.70 | 8.70 | –
COC(=O)NC[C@H]1C[C@H](Nc2cc(-c3ccc4cc(C#N)cnn34)ncc2-c2cn(C(F)F)nn2)C1 [Compound 4, methyl (((1r,3r)-3-((2-(3-cyanopyrrolo[1,2-b]pyridazin-7-yl)-5-(1-(difluoromethyl)-1H-1,2,3-triazol-4-yl)pyridin-4-yl)amino)cyclobutyl)methyl)carbamate] | 6.89 | 8.70 | –
COC(=O)NC[C@H]1C[C@H](Nc2cc(-c3ccc4cc(C#N)cnn34)ncc2-c2nnn(C[C@@H](F)C(C)(C)O)c2F)C1 [Compound 5, methyl (((1R,3r)-3-((2-(3-cyanopyrrolo[1,2-b]pyridazin-7-yl)-5-(5-fluoro-1-((R)-2-fluoro-3-hydroxy-3-methylbutyl)-1H-1,2,3-triazol-4-yl)pyridin-4-yl)amino)cyclobutyl)methyl)carbamate] | 6.84 | 8.52 | –
CC(C)(O)CCn1cc(-c2cnc(-c3ccc4cc(C#N)cnn34)cc2NC2COC2)nn1 [Compound 11, 7-(5-(1-(3-hydroxy-3-methylbutyl)-1H-1,2,3-triazol-4-yl)-4-(oxetan-3-ylamino)pyridin-2-yl)pyrrolo[1,2-b]pyridazine-3-carbonitrile] | – | – | 7.55
Cn1cc(-c2cnc(-c3ccc4cc(C#N)cnn34)cc2N[C@H]2CCC[C@@H](O)C2)nn1 [Compound 12, 7-(4-(((1S,3R)-3-hydroxycyclohexyl)amino)-5-(1-methyl-1H-1,2,3-triazol-4-yl)pyridin-2-yl)pyrrolo[1,2-b]pyridazine-3-carbonitrile] | – | 9.00 | 7.52
COC(=O)NC[C@H]1C[C@H](Nc2cc(-c3ccc4cc(C#N)cnn34)ncc2-c2cn([C@H]3CC[C@H](NC(=O)N4CCOCC4)CC3)nn2)C1 [Compound 17, methyl (((1R,3r)-3-((2-(3-cyanopyrrolo[1,2-b]pyridazin-7-yl)-5-(1-((1r,4R)-4-(morpholine-4-carboxamido)cyclohexyl)-1H-1,2,3-triazol-4-yl)pyridin-4-yl)amino)cyclobutyl)methyl)carbamate] | – | – | 8.30
CNc1cc(-c2ccc3cc(C#N)cnn23)ncc1-c1cn([C@H]2CC[C@H](NC(=O)OC(C)(C)C)CC2)nn1 [Compound 23, tert-butyl ((1r,4r)-4-(4-(6-(3-cyanopyrrolo[1,2-b]pyridazin-7-yl)-4-(methylamino)pyridin-3-yl)-1H-1,2,3-triazol-1-yl)cyclohexyl)carbamate] | – | 7.80 | –
CC(C)Nc1cc(-c2ccc3cc(C#N)cnn23)ncc1-n1cc(CCC(C)(C)O)nn1 [Compound 62, 7-(5-(4-(3-hydroxy-3-methylbutyl)-1H-1,2,3-triazol-1-yl)-4-(isopropylamino)pyridin-2-yl)pyrrolo[1,2-b]pyridazine-3-carbonitrile] | – | – | 7.51
CC(=O)N1CCC(c2cn(-c3cnc(-c4ccc5cc(C#N)cnn45)cc3NC(C)C)nn2)CC1 [Compound 63, 7-(5-(4-(1-acetylpiperidin-4-yl)-1H-1,2,3-triazol-1-yl)-4-(isopropylamino)pyridin-2-yl)pyrrolo[1,2-b]pyridazine-3-carbonitrile] | – | – | 6.83

The remaining lines, values ahead:

pEC50 (TNFα) | pIC50 (IRAK4 enzyme) | pEC50 (TNFα; Monocyte) | Compound
7.05 | 9.00 | – | 7-(4-(isopropylamino)-5-(1-propyl-1H-1,2,3-triazol-4-yl)pyridin-2-yl)pyrrolo[1,2-b]pyridazine-3-carbonitrile [Compound 54]
– | > 9.00 | 7.92 | C[C@H](C#N)Nc1cc(-c2ccc3cc(C#N)cnn23)ncc1-c1cn(C[C@@H](F)C(C)(C)O)nn1 [Compound 1, 7-(4-(((R)-1-cyanoethyl)amino)-5-(1-((R)-2-fluoro-3-hydroxy-3-methylbutyl)-1H-1,2,3-triazol-4-yl)pyridin-2-yl)pyrrolo[1,2-b]pyridazine-3-carbonitrile]
– | 9.00 | 7.82 | CC(C)(O)[C@H](F)Cn1cc(-c2cnc(-c3ccc4cc(C#N)cnn34)cc2NCC#N)nn1 [Compound 2, (R)-7-(4-((cyanomethyl)amino)-5-(1-(2-fluoro-3-hydroxy-3-methylbutyl)-1H-1,2,3-triazol-4-yl)pyridin-2-yl)pyrrolo[1,2-b]pyridazine-3-carbonitrile]
7.72 | > 9.00 | – | COC(=O)NCC1CC(Nc2cc(-c3ccc4cc(C#N)cnn34)ncc2-c2cn(CC3CC(O)C3)nn2)C1 [Compound 6, methyl (((1R,3r)-3-((2-(3-cyanopyrrolo[1,2-b]pyridazin-7-yl)-5-(1-(((1r,3R)-3-hydroxycyclobutyl)methyl)-1H-1,2,3-triazol-4-yl)pyridin-4-yl)amino)cyclobutyl)methyl)carbamate]
7.92 | > 9.00 | – | COC(=O)NCC1CC(Nc2cc(-c3ccc4cc(C#N)cnn34)ncc2-c2cn(C3CC(O)C3)nn2)C1 [Compound 7, methyl (((1R,3r)-3-((2-(3-cyanopyrrolo[1,2-b]pyridazin-7-yl)-5-(1-((1r,3R)-3-hydroxycyclobutyl)-1H-1,2,3-triazol-4-yl)pyridin-4-yl)amino)cyclobutyl)methyl)carbamate]
7.77 | > 9.00 | – | COC(=O)NCC1CC(Nc2cc(-c3ccc4cc(C#N)cnn34)ncc2-c2cn(CC3CC(O)C3)nn2)C1 [Compound 8, methyl (((1R,3r)-3-((2-(3-cyanopyrrolo[1,2-b]pyridazin-7-yl)-5-(1-(((1s,3S)-3-hydroxycyclobutyl)methyl)-1H-1,2,3-triazol-4-yl)pyridin-4-yl)amino)cyclobutyl)methyl)carbamate]
7.80 | > 9.00 | – | COC(=O)NCC1CC(Nc2cc(-c3ccc4cc(C#N)cnn34)ncc2-c2cn(C3CC(CO)C3)nn2)C1 [Compound 9, methyl (((1R,3r)-3-((2-(3-cyanopyrrolo[1,2-b]pyridazin-7-yl)-5-(1-((1r,3R)-3-(hydroxymethyl)cyclobutyl)-1H-1,2,3-triazol-4-yl)pyridin-4-yl)amino)cyclobutyl)methyl)carbamate]
7.70 | 9.00 | – | COC(=O)NCC1CC(Nc2cc(-c3ccc4cc(C#N)cnn34)ncc2-c2cn(C3CC(CNC(=O)OC)C3)nn2)C1 [Compound 10, methyl (((1R,3r)-3-((2-(3-cyanopyrrolo[1,2-b]pyridazin-7-yl)-5-(1-((1r,3R)-3-(((methoxycarbonyl)amino)methyl)cyclobutyl)-1H-1,2,3-triazol-4-yl)pyridin-4-yl)amino)cyclobutyl)methyl)carbamate]
– | > 9.00 | 8.30 | CC(C)(O)[C@H](F)Cn1cc(-c2cnc(-c3ccc4cc(C#N)cnn34)cc2N[C@H]2CCC[C@@H](O)C2)nn1 [Compound 13, 7-(5-(1-((R)-2-fluoro-3-hydroxy-3-methylbutyl)-1H-1,2,3-triazol-4-yl)-4-(((1S,3R)-3-hydroxycyclohexyl)amino)pyridin-2-yl)pyrrolo[1,2-b]pyridazine-3-carbonitrile]
